Data from patent US9493461B2, “Tetracyclic heterocycle compounds and methods of use thereof for the treatment of hepatitis C” (priority 2013, dated 2016).

How the values were obtained:
[1] = tested on: HCV replicon genotype 1a; experiment: HCV replicon assay, genotype 1a (cell ELISA for replicon-encoded NS3/4A); type: cell-based, hepatitis C virus (HCV); conditions: Hepatitis C virus, 96 h, read-out: 1a IC50 (nM), genotype 1a replicon cells, 96 hours incubation, NS3/4A ELISA readout, % of DMSO control
Procedure, shortened: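 Stable G418-selected neomycin-resistant HCV replicon cells were plated with serially diluted compound without G418 and incubated 96 h. After washing and lysis, replicon RNA was measured indirectly by cell ELISA for replicon-encoded NS3/4A; IC50 from four-parameter fit relative to DMSO control.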

[2] = tested on: HCV replicon genotype 1b; experiment: HCV replicon assay, genotype 1b (cell ELISA for replicon-encoded NS3/4A); type: cell-based, hepatitis C virus (HCV); conditions: Hepatitis C virus, 96 h, read-out: 1b IC50 (nM), genotype 1b replicon cells, 96 hours incubation, NS3/4A ELISA readout, % of DMSO control
Procedure, shortened: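 Genotype 1b replicon cells (neomycin-selected, G418 removed for assay) incubated 96 h with compound dilution series. Replication measured by cell ELISA for replicon-encoded NS3/4A after lysis; IC50 from four-parameter fit relative to DMSO control.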

SMILES | IC50 [1] | IC50 [2]
CNC(=O)c1c(-c2ccc(F)cc2)oc2cc(N(C)S(C)(=O)=O)c(-c3ccc4nc(CN5CC[C@@H](F)C5)n5c6cccc(C#N)c6cc5c4n3)cc12 [Example 121] | 2.95 nM | 3.25 nM
CNC(=O)c1c(-c2ccc(F)cc2)oc2cc(N(C)S(C)(=O)=O)c(-c3ccc4nc(CN5CC6(CCOCC6)C5)n5c6cccc(F)c6cc5c4n3)cc12 [Example 79] | 2.37 nM | 3.99 nM
CNC(=O)c1c(-c2ccc(F)cc2)oc2cc(N(C)S(C)(=O)=O)c(-c3ccc4nc(CN5CCN6C(=O)OCC6C5)n5c6cccc(F)c6cc5c4n3)cc12 (stereo not drawn) [Example 98] | 4.79 nM | 4.16 nM
CNC(=O)c1c(-c2ccc(F)cc2F)oc2cc(N(C)S(C)(=O)=O)c(-c3ccc4nc(CN5CCN(C)CC5)n5c6cccc(F)c6cc5c4n3)cc12 [Example 147] | 3.48 nM | 3.99 nM
CNC(=O)c1c(-c2ccc(C(F)(F)F)nc2)oc2cc(N(C)S(C)(=O)=O)c(-c3ccc4ncn5c6cccc(F)c6cc5c4n3)cc12 [Example 1, 5-(11-fluoropyrido[3′,2′:4,5]pyrimido[1,6-a]indol-2-yl)-N-methyl-6-(N-methylmethylsulfonamido)-2-(6-(trifluoromethyl)pyridin-3-yl)benzofuran-3-carboxamide] | 6.56 nM | 4.01 nM
CNC(=O)c1c(-c2ccc(F)cc2)oc2cc(N(C)S(C)(=O)=O)c(-c3ccc4nc(CN5CCOCC5)n5c6cccc(F)c6cc5c4n3)cc12 [Example 90] | 3.62 nM | 3.66 nM
